According to article PMC10907374, “G2019S selective LRRK2 kinase inhibitor abrogates mitochondrial DNA damage” (NPJ Parkinson's Disease, 2024):
“Also recorded” adds a separate entry of the source.

Columns and labels:
Assay type in all cases: cell-based, human
[1] = test system: WT-LRRK2 expressing HEK293 cells; test: Mito DNADX mtDNA damage and mtDNA copy number in WT-LRRK2 overexpressing HEK293 cells; settings: 10 nM-1 μM, 2 h
Experimental: (§1) Cells were plated at a density of 0.3 × 10^6 cells in a 6-well dish and treated at ~40–50% confluency. At the time of harvest, cells were collected and either protein collected or DNA extracted as described below.
(§2) The tool compound EB-42168 was discovered as part of a small molecule discovery program aimed at identifying LRRK2 kinase inhibitors that are selective for the pathogenic G2019S LRRK2 variant. […] MLi‐2 inhibits WT LRRK2 ~1000‐fold more than EB‐42168[20].
(§3) Cells were collected and the nuclei and mitochondria were isolated as previously described. DNA was extracted from LRRK2-WT and G2019S-LRRK2 cells, and wild-type and LRRK2^G2019S/G2019S KI cells using QuickGene DNA Whole Blood Kit L (Autogen, fk-dbl). PD patient LRRK2 G2019S and healthy subject control-derived LCL DNA was extracted using the QuickGene DNA Tissue Kit L (Autogen, fk-dtl), utilizing a semi-automated system (Autogen, QuickGene-610L). For the Autogen system, the pellet was resuspended in 2 ml of 1X PBS, and the standard manufacturer’s protocol was conducted as if the cell suspension was whole blood. DNA was eluted with EDTA-free buffer, and quality was assessed using a Spectradrop microvolume microplate (Molecular Devices). Double-stranded DNA was quantified using Quant-iT Picogreen dsDNA assay (Thermo Fisher) as previously described.
(§4) DNA damage in the mitochondrial genome was measured utilizing Mito DNADX, an assay that we recently developed and described, currently the most robust way of measuring damage in mtDNA[39],[82]. The Mito DNADX assay combines optimized polymerase chain reaction (PCR) parameters using a high-fidelity DNA polymerase and a fluorescent dye that binds to double-stranded DNA that permits the real-time quantification of DNA damage in distinct loci in a 96-well platform. The premise of the Mito DNADX assay involves amplification of a specific mitochondrial PCR fragment in which less PCR product will be amplified when mtDNA damage or lesions block the ability of the DNA polymerase to replicate. As such, mtDNA damage or mtDNA repair intermediates that slow down or impair DNA polymerase progression will be detected. Therefore, equal amounts of sample DNA amplified under identical conditions can be directly compared across conditions to determine the mtDNA lesion frequency. Mitochondrial DNA lesion frequency was performed as previously described. Briefly, 15 ng of DNA was used to amplify long or short amplicons of the mitochondrial genome (as determined by primer sets). The amount of amplification is directly proportional to the number of undamaged DNA templates. Average lesion frequency is calculated as described. […] Each biological DNA sample was analyzed in technical triplicate. […]

wild-type HEK293 cells = test: Mito DNADX mtDNA damage and mtDNA copy number in wild-type HEK293 cells; settings: 10 nM-1 μM, 2 h
Experimental: as §1
Following this treatment, “Post-treatment recovery 0 h” samples were collected immediately, or vehicle or MLi-2-containing treatment medium was washed out and replaced with fresh medium and incubated for 2 additional hours and then collected as “Post-treatment recovery 2 h” samples. Isolation, quantitation, and mtDNA damage was performed as described below. […]
Cells were collected and the nuclei and mitochondria were isolated as previously described. […] DNA was eluted with EDTA-free buffer, and quality was assessed using a Spectradrop microvolume microplate (Molecular Devices). Double-stranded DNA was quantified using Quant-iT Picogreen dsDNA assay (Thermo Fisher) as previously described.
DNA damage in the mitochondrial genome was measured utilizing Mito DNADX, an assay that we recently developed and described, currently the most robust way of measuring damage in mtDNA[39],[82]. The Mito DNADX assay combines optimized polymerase chain reaction (PCR) parameters using a high-fidelity DNA polymerase and a fluorescent dye that binds to double-stranded DNA that permits the real-time quantification of DNA damage in distinct loci in a 96-well platform. […]

[2] = test system: heterozygous G2019S LRRK2 PD patient-derived LCLs; test: Mito DNADX mtDNA damage and mtDNA copy number in G2019S LRRK2 PD patient-derived LCLs; settings: 10 and 100 nM, 2 h
Experimental: (§5) PD patient G2019S LRRK2 (n = 2) and healthy subject control (n = 2)-derived LCLs were obtained from the NINDS Coriell biorepository (ID numbers are ND00011, ND00264, ND01618, ND02559). There was not a statistical difference in the ages between the PD patient and healthy control subjects (p = 0.92). LCLs were cultured at 37 °C, 5% CO2, in RPMI-1640 (Sigma-Aldrich, R8758), 15% heat-inactivated fetal bovine serum (VWR Seradigm, 97068-091) and 0.5% Penicillin/Streptomycin (Corning, 30-002-CI). […] All in vitro experiments were repeated at least three times from distinct samples.
as §2, §3
as §4, with “Therefore, equal amounts of sample DNA amplified under identical conditions can be directly compared across conditions to determine the mtDNA lesion frequency. Mitochondrial DNA lesion frequency was performed as previously described.” left out, “The amount of amplification is directly proportional to the number of undamaged DNA templates.” left out

healthy control LCLs = test: Mito DNADX mtDNA damage and mtDNA copy number in healthy control-derived LCLs; settings: 10 and 100 nM, 2 h
Experimental: as §5, §2, §3
as §4, with “Therefore, equal amounts of sample DNA amplified under identical conditions can be directly compared across conditions to determine the mtDNA lesion frequency. Mitochondrial DNA lesion frequency was performed as previously described.” left out, “The amount of amplification is directly proportional to the number of undamaged DNA templates.” left out

Compound	mtDNA copy number [1]	mtDNA damage [1]	mtDNA copy number (wild-type HEK293 cells)	mtDNA copy number [2]	mtDNA damage [2]	mtDNA copy number (healthy control LCLs)	mtDNA damage (healthy control LCLs)
CC1=C(C(=O)Nc2ccc3[nH]nc(-c4ccnc(N5CCOCC5)c4)c3c2)C(C)(C)n2nnnc2N1C [EB-42168]	not different; also recorded: did not change	No effect	no effect	No differences	restored to control levels	No differences	without an effect
C[C@@H]1CN(c2cc(-c3n[nH]c4ccc(OC5(C)CC5)cc34)ncn2)C[C@H](C)O1 [MLi-2, reference compound]	no effect; also recorded: unaltered	trend toward an increase in mtDNA damage	did not change	No differences	reversed mtDNA damage	No differences	no effect
